Target: T1, recombinant human PAI-1 (Homo sapiens, UniProt P05121)
T1 construct: purchased Molecular Innovations, Inc
Assay: Test Example 2: human PAI-1 inhibitory activity (tPA fluorogenic substrate, pH 7.4 HEPES buffer)
Format: biochemical
Conditions: human PAI-1
Experimental: 0.1 M HEPES, 0.1 M NaCl. 1 mM EDTA. 0.1% Polyethylene glycol 8,000 (Hampton Research Corporation),
2 mM Dimethyldecylphoshine oxide [Apo-10] (Fluka Corporation)

T1 sequence (P05121 24-402): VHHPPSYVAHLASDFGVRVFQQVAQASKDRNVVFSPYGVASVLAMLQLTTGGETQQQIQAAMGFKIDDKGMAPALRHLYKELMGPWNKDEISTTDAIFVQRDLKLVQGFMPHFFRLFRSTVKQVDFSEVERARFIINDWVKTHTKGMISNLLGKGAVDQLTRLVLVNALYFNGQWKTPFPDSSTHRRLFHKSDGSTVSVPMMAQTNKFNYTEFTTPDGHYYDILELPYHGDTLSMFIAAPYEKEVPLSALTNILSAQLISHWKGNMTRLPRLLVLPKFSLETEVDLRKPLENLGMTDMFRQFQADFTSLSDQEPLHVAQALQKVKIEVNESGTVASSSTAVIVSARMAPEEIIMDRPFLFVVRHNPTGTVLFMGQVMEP

Compound	Inhibition Rate of PAI-1 Activity (%) (compound concentration 0.1 μM)	Inhibition Rate of PAI-1 Activity (%) (compound concentration 0.3 μM)	Inhibition Rate of PAI-1 Activity (%) (compound concentration 1 μM)	Inhibition Rate of PAI-1 Activity (%) (compound concentration 3 μM)
Cc1ccc(-c2ccc(OCC(=O)O)c(Oc3ccc(C(C)(C)C)cc3)c2)cc1 [Compound 444]	0%	0%	11%	96%
COc1ccc(-c2ccc(OCC(=O)O)c(Oc3ccc(C(C)(C)C)cc3)c2)cc1 [Compound 445]	0%	1%	12%	50%
CC(C)(C)c1ccc(Oc2cc(-c3ccc(C(C)(C)C)cc3)ccc2OCC(=O)O)cc1 [Compound 446]	3%	13%	84%	>99%
CCC(CC)Oc1ccc(-c2ccc(OCC(=O)O)c(Oc3ccc(C(C)(C)C)cc3)c2)cc1 [Compound 447]	4%	11%	89%	>99%
CSc1ccc(-c2ccc(OCC(=O)O)c(Oc3ccc(C(C)(C)C)cc3)c2)cc1 [Compound 448]	4%	11%	39%	>99%
CC(C)(C)c1ccc(Oc2cc(-c3ccc(OC(F)(F)F)cc3)ccc2/C=C\C(=O)O)cc1 [Compound 450]	9%	11%	58%	98%
O=C(O)COc1cc(Oc2ccc(OC(F)(F)F)cc2)ccc1OCCCCc1ccccc1 [Compound 452]	9%	8%	15%	94%
CC(C)(C)c1ccc(Oc2ccc(-c3ccc(C(C)(C)C)cc3)cc2OCC(=O)O)cc1 [Compound 453]	4%	15%	96%	>99%
CCCCCOc1ccc(-c2ccc(Oc3ccc(C(C)(C)C)cc3)c(OCC(=O)O)c2)cc1 [Compound 454]	11%	17%	>99%	>99%
CC(C)(C)c1ccc(Oc2cc(-c3cc(Cl)ccc3Cl)ccc2OCC(=O)O)cc1 [Compound 455]	9%	20%	93%	99%
CC(C)(C)c1ccc(Oc2cc(-c3ccccc3OC(F)(F)F)ccc2OCC(=O)O)cc1 [Compound 456]	7%	13%	70%	98%
CC(C)(C)c1ccc(Oc2cc(-c3ccc(Cl)cc3)ccc2OCC(=O)O)cc1 [Compound 457]	21%	18%	63%	>99%
CC(C)(C)c1ccc(Oc2cc(-c3ccc(F)cc3)ccc2OCC(=O)O)cc1 [Compound 459]	26%	31%	42%	86%
CC(C)Oc1ccc(-c2ccc(OCC(=O)O)c(Oc3ccc(C(C)(C)C)cc3)c2)cc1 [Compound 460]	1%	8%	63%	>99%
CCCCOc1ccc(Oc2cc(-c3ccc(OC(F)(F)F)cc3)ccc2CCC(=O)O)cc1 [Compound 461]	1%	26%	95%	98%
CC(C)(C)c1ccc(Sc2cc(-c3ccc(OC(F)(F)F)cc3)ccc2/C=C/C(=O)O)cc1 [Compound 462]	37%	94%	97%	95%

Compound	Inhibition Rate of PAI-1 Activity (%) (compound concentration 0.1 μM)	Inhibition Rate of PAI-1 Activity (%) (compound concentration 0.3 μM)	Inhibition Rate of PAI-1 Activity (%) (compound concentration 1 μM)	Inhibition Rate of PAI-1 Activity (%) (compound concentration 3 μM)
CC(C)(C)c1ccc(-c2ccc(OCC(=O)O)c(Oc3cccc(C(C)(C)C)c3)c2)cc1 [Compound 465]	10%	17%	87%	98%
CC(C)(C)c1ccc(Oc2cc(-c3ccccc3OC(F)(F)F)ccc2/C=C/C(=O)O)cc1 [Compound 466]	4%	9%	88%	>99%
CC(C)(C)c1ccc(Oc2cc(-c3ccccc3OC(F)(F)F)ccc2CCC(=O)O)cc1 [Compound 467]	2%	6%	73%	>99%
CCCCOc1ccc(-c2ccc(OCC(=O)O)c(Oc3ccc(C(C)(C)C)cc3)c2)cc1 [Compound 468]	1%	5%	86%	97%
CC(C)(C)c1ccc(Oc2cc(-c3ccc4ccccc4c3)ccc2/C=C/C(=O)O)cc1 [Compound 469]	4%	22%	96%	>99%
CC(C)(C)c1ccc(Oc2cc(-c3ccc4ccccc4c3)ccc2CCC(=O)O)cc1 [Compound 470]	3%	16%	87%	>99%
CC(C)(C)c1ccc(Oc2cc(-c3ccc(C#N)cc3)ccc2OCC(=O)O)cc1 [Compound 471]	5%	7%	11%	49%
CCCCOc1cccc(Oc2cc(-c3ccc(OC(F)(F)F)cc3)ccc2CCC(=O)O)c1 [Compound 472]	15%	14%	71%	>99%
CC(C)(C)Oc1ccc(Oc2cc(-c3ccc(OC(F)(F)F)cc3)ccc2CCC(=O)O)cc1 [Compound 473]	15%	9%	26%	>99%
O=C(O)CCc1ccc(-c2ccc(OC(F)(F)F)cc2)cc1Oc1ccc(C(F)(F)F)cc1 [Compound 474]	2%	11%	43%	>99%
CCC(C)(C)c1ccc(Oc2cc(-c3ccc(OC(F)(F)F)cc3)ccc2CCC(=O)O)cc1 [Compound 475]	4%	27%	94%	>99%
O=C(O)CCc1ccc(-c2ccc(OC(F)(F)F)cc2)cc1Oc1ccc2ccccc2c1 [Compound 476]	0%	3%	65%	>99%
O=C(O)/C=C/c1ccc(-c2ccc(OC(F)(F)F)cc2)cc1Oc1ccc(OC(F)(F)F)cc1 [Compound 477]	7%	21%	60%	>99%
CC(C)(C)c1ccc(-c2ccc(/C=C/C(=O)O)c(Oc3ccc(OC(F)(F)F)cc3)c2)cc1 [Compound 478]	11%	33%	90%	>99%
O=C(O)CCc1ccc(-c2ccc(OC(F)(F)F)cc2)cc1Oc1ccc(OC(F)(F)F)cc1 [Compound 479]	17%	14%	70%	>99%

Reference: patent US8633245B2, “PAI-1 inhibitor” (Institute of Medicinal Molecular Design, Inc., priority 2008, dated 2014)
